Results reported in publication PMC9686674, “Potent Anti-Inflammatory Effects of a Helix-to-Helix Peptide against Pseudomonas aeruginosa Endotoxin-Mediated Sepsis” (Antibiotics, 2022).
Ends that are not written are not given here.

Experiments:
[1] = test system: Escherichia coli, Pseudomonas aeruginosa, Staphylococcus aureus, and Listeria monocytogenes; format: cell-based
Method: The antibacterial activity was examined using a microdilution assay with Eschrichia coli (ATCC 25922), P. aeruginosa (ATCC 15692) and Staphylococcus aureus (ATCC 25923), which were obtained from the American Type Culture Collection. Listeria monocytogenes (KCTC 3710) was obtained from the Korean Collection for Type Cultures. Cell survival was investigated using the 3-(4,5-dimethylthiazol-2-yl)-2,5-diphenyltetrazolium bromide assay in RAW264.7 cells. The assay was performed as described previously.

[2] = test system: Balb/c mice lungs; assay: LPS-induced acute lung injury (ALI) in mice; format: in vivo; settings: 1 mg/kg intratracheal, 3 days, histology
Method: Figure 8 In vivo anti-inflammatory effects of peptides in acute lung injury. Pseudomonas aeruginosa LPS (500 ng) was intratracheally instilled in mice lungs. One hour after instillation, peptides were intratracheally administered, followed by monitoring for 3 days. Lungs collected from the euthanized mice were digitally visualized and tissues were stained using eosin/alcian blue, H&E, PE-conjugated TNF-α, and IL6 antibody. Bar is 50 µm.
P. aeruginosa LPS (500 ng) in 50 µL PBS was intratracheally instilled into seven-week-old female Balb/c mice. One hour after exposure, each peptide was intratracheally administered at the indicated dose in 50 µL PBS. Control mice were injected with 50 µL PBS without the peptides. Mice were monitored for signs of morbidity for 3 days after LPS exposure. Mice were euthanized using CO2 inhalation, and the lung tissues were excised and fixed in 4% paraformaldehyde. The fixed tissues were dehydrated using a series of ethanol solutions (50−100%) and embedded in paraffin. The tissues embedded with paraffin were sectioned with a thickness of 5 µm (Leica microtome, Deerfield, MA, USA). Histopathology of the lung tissues was performed using alcian blue and eosin and H&E staining. […] The stained tissue sections were observed under a fluorescence microscope (OPTINIT KCS3-160S; Korea Lab Tech, Seongnam, Gyeonggi-do, Republic of Korea).

[3] = test system: RAW 264.7 cells; assay: LPS-stimulated ROS generation (H2DCFDA fluorescence microscopy); format: cell-based, murine; settings: RAW 264.7, peptides 8 µM pre-incubated 30 min, P. aeruginosa LPS 100 ng/mL, 24 h
Method: Figure 3 CD spectra of peptides in LPS and effects of peptides on reactive oxygen species (ROS) production. (A) Secondary structures of WIK-10, WIR-10, WIK-14, and WIKE-14 peptides (50 µM) in 1 µg/mL Pseudomonas aeruginosa LPS. (B) RAW 264.7 cells were pre-incubated in the absence or presence of peptides (8 µM) for 30 min and treated with or without LPS (100 ng/mL). After 24 h incubation, the cells were treated using H2DCFDA and incubated for […], following which the fluorescent cells were observed under a fluorescence microscope.
RAW 264.7 cells (1 × 10^6 cells/mL) plated in a 24-well plate were pre-cultured for 24 h. Peptides in RPMI-1640 medium were then pretreated to cells for 30 min and P. aeruginosa LPS (100 ng/mL) was added, followed by additional incubation for 24 h. Control cells are not treated with peptides and LPS. H2DCFDA (10 µL, final concentration 10 µM) was treated to the cells, followed by incubation for 30 min in a CO2 incubator. The cells washed with cold-PBS buffer were then observed using a fluorescence microscope (OPTINIT KCS3-160S; Korea Lab Tech, Seongnam, Gyeonggi-do, Republic of Korea).

[4] = test system: RAW 264.7 cells; assay: Cytokine mRNA (IL-6, TNF-α) in LPS-stimulated RAW 264.7 cells (RT-PCR); format: cell-based, murine; settings: RAW 264.7, LPS 1 μg/mL, 32 μM peptide, 8 h, compared to only LPS-treated cells
Method: (§1) Figure 6 Anti-inflammatory effects of peptides in RAW 264.7 cells. (A) Secreted nitric oxide and tumor necrosis factor-α were measured from the supernatants after 24 h of LPS-stimulation with peptides (32 µM). (B) mRNA expression of RAW 264.7 cells with peptides. IL-6, interleukin-6, TNF- α, tumor necrosis factor-α; GAPDH, Glyceraldehyde 3-phosphate dehydrogenase. 1: control, 2: LPS, 3: LPS+Polymyxin B, 4: LPS+KIW-10, 5: LPS+WIK-10, 6: LPS+RIW-10, 7: LPS+WIR-10, 8: LPS+KIW-14, 9: LPS+WIK-14, 10: LPS+WIKE-14.
RAW 264.7 cells were cultured in RPMI-1640 medium containing 10% FBS, and then seeded to 5 × 10^6 cells/mL in a 6-well plate and cultured at 37 °C, 5% CO2 incubator for 24 h. Each well was treated with 1 μg/mL of LPS; after 1 h, 32 μM of each peptide was added and incubated for 8 h. Cells were collected, and total RNA was isolated using TRIzol reagent (Thermo Fisher Scientific, Waltham, MA, USA). 5′-[…]-3′ and 5′-[…]-3′ as Glyceraldehyde 3-phosphate dehydrogenase primers, 5′-[…]-3′ and 5′-[…]-3′ as IL-6 primers, and 5′-[…]-3′ and 5′-[…]-3′ as TNF-α primers were used for reverse transcription-polymerase chain reaction (RT-PCR). The PCR products generated using the Maxime RT-PCR premix kit (IntronBio, Seongnam, Gyeonggi-do, Republic of Korea) were confirmed using electrophoresis.

[5] = test system: RAW 264.7 cells; assay: Nitric oxide production in LPS-stimulated RAW 264.7 cells (Griess); format: cell-based, murine; settings: RAW 264.7, P. aeruginosa LPS 1 µg/mL, peptides 32 µM, 24 h, Griess reagent
Method: as §1
The murine macrophage cell RAW 264.7 was grown RPMI-1640 medium supplemented with 10% FBS and then plated at a density of 1 × 10^6 cells/mL in a 24-well microplate. After incubation for 24 h, the cells were stimulated with P. aeruginosa LPS (1 µg/mL), followed by further incubation for 1 h. Peptides were incubated for 24 h. Nitrite was measured by adding 100 µL of cell culture extract to 100 µL of Griess reagent (1% sulfanilamide and 0.1% naphthylenediamine in 5% phosphoric acid). The nitrite concentrations were calculated by comparing the absorbance of sodium nitrite standard solutions. The optical density was evaluated at 550 nm in a microplate reader (Molecular Devices, Emax, CA, USA). TNF-α levels in culture supernatants were analyzed using the R&D system TNF-α EASIA kit, Minneapolis, MN, USA). The developed color was determined by measuring the OD at 490 nm in a microplate reader.

[6] = test system: binding between LPS and RAW 264.7 cells; assay: Inhibition of FITC-LPS binding to RAW 264.7 cells (fluorescence microscopy and flow cytometry); format: cell-based, murine; settings: FITC-LPS 1 µg/mL, fluorescence microscopy, dose-dependent
Method: Figure 4 Inhibitory effects of peptides on binding between LPS and RAW 264.7 cells. Fluorescein isothiocyanate-labeled LPS and peptides were incubated for 12 h with RAW 264.7 cells, and cells were washed with PBS, followed by observation using fluorescence microscopy.
RAW 264.7 cells cultured in Roswell Park Memorial Institute Medium (RPMI)-1640 containing 10% fetal bovine serum (FBS) were aliquoted to 1 × 10^6 cells/mL in a 24-well plate, and cultured at 37 °C, 5% CO2 incubator for 24 h. Each well was treated with 1 µg/mL of FITC-attached LPS. After 1 h, peptides were added to the wells at the indicated concentrations. After incubation for 8 h, the cells were washed with cold-PBS, observed under a fluorescence microscope, and measured using flow cytometry (Beckman Coulter CytoFlex, Brea, CA, USA).

Substance	GM, geometric mean of minimum inhibitory concentration values [1]	other results
KKIIKKIIKKIWKW-NH2 [KIW-14]	2.6 ± 1.2 µM	–
KKIIKKIWKW-NH2 [KIW-10]	11 ± 1 µM	–
KKIWKKWIKI-NH2 [KWI-10]	10.5 ± 1.2 µM	–
KKIWKKWIKKIIKI-NH2 [KWI-14]	2.6 ± 0.8 µM	–
RRIIRRIWRW-NH2 [RIW-10]	8.5 ± 0.8 µM	–
RRIWRRWIRI-NH2 [RWI-10]	7 ± 1.2 µM	–
WIKKIWKKIIKEIK-NH2 [WIKE-14]	8 ± 0.8 µM	toxicity in lung tissue cells, peptide alone [2]: non-toxic
WIKKIWKKIIKKIK-NH2 [WIK-14]	2.1 ± 0.4 µM	toxicity in lung tissue cells, peptide alone [2]: toxic
WIKKIWKKIK-NH2 [WIK-10]	6.5 ± 0.8 µM	–
WIRRIWRRIR-NH2 [WIR-10]	3 ± 0.2 µM	–
melittin	–	ROS-producing level of LPS-treated cells [3]: significantly reduced
polymyxin B	–	expression levels of IL-6 and TNF-α (mRNA) [4]: clearly decreased; ROS-producing level of LPS-treated cells [3]: significantly reduced; LPS-induced NO secretion [5]: inhibited; FITC fluorescence signals in RAW 264.7 cells (FITC-LPS binding) [6]: dramatically decreased
